Results from US5328913A, “Minoxidil analogs as inhibitors of cell proliferation and lysyl hydroxylase” (priority 1992, dated 1994).

Legend:
[1] = system: prolyl hydroxylase; assay: Prolyl hydroxylase activity in fibroblasts treated with minoxidil and its hydroxy derivatives (Example 3); format: cell-based, human; details: 1 mM
Method: Culture of human skin fibroblasts derived from an apparently normal adult were grown to confluent densities in Dulbecco's modified Eagle's medium supplemented with 10% (v/v) fetal calf serum. Thereafter, the medium was replaced with medium supplemented with 0.5% dialyzed fetal calf serum. The cultures were treated for 72 hr with 1 mM minoxidil, 3'- hydroxyminoxidil,or 4'-hydroxyminoxidil (Upjohn) dissolved in aqueous medium. In some experiments, minoxodil was dissolved in 95% (v/v) ethanol; the final concentration of minoxidil was 0.3 mM and that of ethanol was 0.3%. Cultures treated with ethanol only served as the control.
During the last 3 hr of treatment, cultures received 100 μM ascorbic acid. The enzyme activities in extracts of treated cells were measured by tritium-release assays described previously (Murad and Pinnell, J. Biol. Chem. 262:11,973 (1987)).

[2] = system: human skin fibroblasts; details: background; cited from earlier work
[3] = system: Lysyl Hydroxylations in Human Skin Fibroblasts; assay: Hydroxylation of lysine residues in type I procollagen (Hyl/Lys); format: cell-based; details: 0.3 M, 72 hr
[4] = system: prolyl hydroxylase; assay: Prolyl hydroxylase activity in extracts of treated human skin fibroblasts (Example 1, tritium-release assay); format: cell-based; details: cultured fibroblasts, 72 h, Example 1
Method: (§1) Cultures of human skin fibroblasts grown to confluence were incubated for 72 h in medium supplemented with 1% ethanol containing various concentrations of minoxidil or deoxyminoxidil as indicated. Cells were then harvested, and the enzyme activities in extracts of these cells were measured by tritium-release assays (Murad and Pinnell, J. Biol. Chem. 262:11,973 (1987)). The results are expressed as percentages of zero-concentration values.
as §1, with “with 1% acetone containing various concentrations of minoxidil sulfate,” for “deoxyminoxidil”, “tritium release” for “tritium-release”
Skin fibroblast cultures derived from an apparently normal child (GM05659) were obtained from the Institute for Medical Research, Camden, N.J. The cells were subcultured by trypsinization and used before 25 population doublings. Typically, 4×10^5 cells were seeded onto 100-mm (diameter) plastic petri dishes and allowed to grow in 10 ml of Dulbecco's modified Eagle's minimum essential medium containing 5.6 mM glucose, buffered in pH 7.4 with 24 mM sodium biocarbonate/25 mM Hepes and supplemented with 20% (v/v) calf serum which had been inactivated for 30 min at 56° C. The cells were incubated at 37° C. in a humidified atmosphere of 5% CO2 plus 95% air.
After a week, the medium was replaced with medium supplemented with 0.5% heat-inactivated diaylzed calf serum, and the incubation was continued for 72 h in the presence of minoxidil or one of its structural analogs. The compounds were dissolved in 95% ethanol, except minoxidil sulfate which was dissolved in acetone; the final solvent concentration was 1% (v/v). During the last 3 h of incubation, cells received 100 μM Na L-ascorbate to ensure complete hydroxylation of the polypeptide precursors of precollagen (Murad et al, J. Invest. Dermatol. 75:404 (1980)).
The medium was then removed and the cells were washed twice with a solution containing 0.14 M NaCl, 5 mM KCl, 0.3 mM Na2 PO4, and 0.4 mM KH2 PO4, adjusted to pH 7.4. […] The trypsinization was terminated with 2 vol of 20% serum-supplemented medium, and the cell number in an aliquot of the suspension was determined using a Coulter counter. […]
The protein content of cell extracts was determined by a dye-binding technique using Bio-Rad reagent and protein standard (Bradford, Anal. Biochem. 72:248 (1976)).

[5] = system: Prolyl Hydroxylations in Human Skin Fibroblasts; assay: Hydroxylation of proline residues in type I procollagen (Hyp/Pro); format: cell-based; details: for Hyp/Pro: 72 hr
Method: Culture of human skin fibroblasts derived from an apparently normal adult were grown to confluent densities in Dulbecco's modified Eagle's medium supplemented with 10% (v/v) fetal calf serum. Thereafter, the medium was replaced with medium supplemented with 0.5% dialyzed fetal calf serum. […] In some experiments, minoxodil was dissolved in 95% (v/v) ethanol; […]. Cultures treated with ethanol only served as the control.
During the last 6 hr of treatment, cultures were labeled with 50 μCi of L-[2,3-^3 H]proline (35 Ci/mmol) and 50 μCi of L[U-^14 C]lysine ([…]) in 4 ml of lysine-free medium supplemented with 100 μM ascorbic acid. At the end of the incubation period, the medium was removed and mixed with 1 mM each of EDTA, N-ethylmaleimide, and phenylmethylsulfonylfluoride, and the collagenous proteins were precipitated with 30% (NH4)2 SO4. The cell layer was scraped and extracted with 0.5 M acetic acid containing the protease inhibitors as above. The cell extract was neutralized, and the collagenous proteins were precipitated as above. The (NH4)2 SO4 precipitate from the medium and cell layer was separately dissolved in 0.1% SDS/10 mM Tris-HCl (pH 6.8), reduced with dithiothreitol, and analyzed by electrophoresis on 4% SDS-polyacrylamide gels. The bands corresponding to the proαl(I) and proα2(I) chains from the two fractions were pooled and hydrolyzed with 6 M HCl for 24 hr at 110° C. Proline, hydroxyproline, lysine, and hydroxylysine in the hydrolysate were separated by HPLC (Takimitsa et al, J. Dermatol. 16:37 (1989)), and their radioactivity was determined in a Beckman liquid scintillation counter. To isolate type I procollagen the precipitate from the medium and cell layer was separately dissolved in 25 mM Tris-HCl, pH 7.5, containing 2 M urea and 1 mM each of EDTA, N-ethylmaleimide, and phenylmethylsulfonylfluoride, then chromatographed on a DEAE-cellulose column (Freiberger et al, J. Invest. Dermatol. 75:425 (1980)). The procollagen isolated from the two fractions was pooled, hydrolyzed, and analyzed as above.

Nc1cc(N2CCCCC2)nc(N)[n+]1[O-] [Minoxidil]
prolyl hydroxylase activity (in words) ([1]; 72 hr): remained unchanged | Prolyl Hydroxylase Activity ([1]; 72 hr (Table VI)): 29446 cpm ^3 H2 O/mg protein | Prolyl Hydroxylase Activity ([1]; 72 hr (description table)): 29446 cpm^3 H2 O/mg protein | inhibition of serum-induced proliferation of fibroblasts in culture (in words) [2]: capable of inhibiting the serum-induced proliferation of fibroblasts in culture | Hyl/Lys ([3]; type I procollagen chains isolated by gel electrophoresis, mean ± range (Table IV)): 0.08 ± 0.02 | Hyl/Lys ([3]; type I procollagen isolated by column chromatography (Table IV)): 0.17 | effect on prolyl hydroxylase activity (in words) [4]: no significant effect on prolyl hydroxylase activity | Hyp/Pro ([5]; 1 mM, gel electrophoresis (Table V)): 0.92 ± .01 | Hyp/Pro ([5]; 1 mM, type I procollagen chains isolated by gel electrophoresis, mean ± range of two experiments (description table)): 0.92 ± 0.01 | Hyp/Pro ([5]; 0.3 M, type I procollagen chains isolated by gel electrophoresis, mean ± range (Table IV)): 0.91 ± .03 | activity at 1000 µM ([5]; Homo sapiens, Skin fibroblast, 1 mM, 72 hr (Table V), read-out: ratio of hydroxyproline to proline, % control value): 100% | ratio of hydroxyproline to proline (in words) ([5]; Table IV text): remained unaltered
